This is an account of results in US6071709A, “Nerve growth factor/receptor complex” (The United States of America as represented by the …, priority 1992, dated 2000).

For one assay, the system named is p140^prototrk. Nature of the assay: NGF-dependent trk tyrosine phosphorylation in SY5Y cells. The assay is classed as cell-based, human. The conditions noted are these: 100 ng/ml NGF for 5 min. An excerpt: FIGS. 4A-B show NGF-dependent tyrosine phosphorylation of gp140trk in the human neuroblastoma cell lines LA-N-5, SY5Y, and dorsal root ganglia from mouse embryos. FIG. 4A, gp140trk was immunoprecipitated from untreated (-) or NGF treated (+) LA-N-5 cells (K. H. Sonnenfeld and D. N. Ishii, J. Neurosci. Res. 8:375-391 (1982)), SY5Y cells (K. H. Sonnenfeld and D. N. Ishii, (1982)), NR18 cells (M. A. Bothwell et al., Cell 21:857-866 (1980)), or PC12 cells. Immunoprecipitates were probed with P-tyr antibodies. The differences in trk protein mobilities are due to differences in glycosylation. FIG. 4B, Tyrosine phosphorylation of gp140trk in DRGs from 13.5 day or 14.5 day embryonic mice. DRGs were maintained in 100 ng/ml NGF for ≥10 min prior to lysis and immunoprecipitation with trk antibodies. trk immunoprecipitates were probed with P-tyr antibody. Tyrosine phosphorylated gp140trk from NGF-treated (+) PC12 cells or untreated (-) PC12 cells is shown for comparison. Samples were normalized for cell protein. Molecular weight markers in kDa are indicated.
Cell lines were treated with 100 ng/ml NGF for 5 min and gp140trk immunoprecipitated as in FIG. 1. DRGs were prepared by dissection for 13.5 or 14.5 day mouse embryos. […] Lysates were immunoprecipitated with trk antibody and the trk proteins were analyzed by antiphosphotyrosine immunoblots. […]

The test system of the next assay is trk transcripts. Nature of the assay: Northern transfer analysis of trk transcripts in PC12 cells with or without NGF. It counts as cell-based, rat. The following applies: 50 ng/ml NGF, 48 hr. As for the experimental part:
RNA preparation and Northern transfer analysis was performed as described (Martin-Zanca et al., (1990a)). Cells were treated with 50 ng/ml NGF(+) (Boehringer Mannheim Biochemicals) and were harvested 48 hr later after differentiation had occurred. 20 μg of total RNA was loaded per lane, and the filter was hybridized with a trk (Martin-Zanca et al., (1990)) or trkB (Klein et al., (1990a)) specific probe.
The trk gene is a member of a gene family of TK receptors that includes the related gene trkb. To determine if trk is transcribed in PC12 cells, the expression of trk transcripts was assayed by Northern transfer analysis with a full-length trk cDNA probe (R. Klein et al., (1990a)). PC12 cells contained trk transcripts (FIG. 7). The level of trk transcripts was not affected by the addition of NGF. To determine whether additional trk-related genes were transcribed in PC12 cells, mRNA was hybridized at low stringency with the highly conserved trk TK domain. trk transcripts have been found in LA-N-5 cells, Sy5y cells and DRG from 13.5 day or 14.5 day embryonic mice.

The next assay concerns gp145^trkB. As to the kind of experiment: gp145^trkB tyrosine phosphorylation in trkB-expressing NIH 3T3 cells (pJM8 lines), immunoprecipitation and α-Ptyr Western. It counts as cell-based, rat. The following applies: pJM8 trkB-expressing NIH 3T3 cells, 100 ng/ml factor, 5 min. How it is done: A 4.8 kb cDNA encompassing the coding domain of rat trkB (Middlemas et al., (1991)) was cloned into the pMEX plasmid (pJM8) downstream of the MSV promoter. NIH 3T3 cells were cotransfected with the pJM8 plasmid and a plasmid containing the neomycin phosphotransferase gene (L. F. Parada et al., Nature 312:649-651 (1984)), and G418-resistant colonies were selected. PC12 cells (Greene and Tischler, 1976) were grown in DMEM with 10% horse serum and 5% fetal calf serum. NIH 3T3 cells and the derivative cells lines were maintained in DMEM medium containing 10% calf serum. All cells were maintained in a humidified incubator at 37° C. in 5% CO2.
Approximately 10^7 cells were treated at 37° C. for 5 min with 100 ng/ml growth factors or at the concentrations and lengths of time noted in the text. NP-40 plate lysis and gp145^trkB immunoprecipitation with anti-serum 443 were performed as previously described (Kaplan et al., (1990), (1991)). The phosphotyrosine content was analyzed by Western transfer using monoclonal antibody 4G10 as previously described (Morrison et al., (1989)).
The product of the trk proto-oncogene (gp140^proto-trk) is tyrosine phosphorylated in response to NGF in PC12 cells, NGF-responsive neuroblastoma cells, heterologous fibroblasts and Xenopus oocytes (Kaplan et al., (1991); A. R. Nebreda et al., Science 252:558-560 (1991); Klein et al., (1991)). Next it was examined whether NGF elicited tyrosine phosphorylation of gp145^trkB in trkB-expressing NIH 3T3 cells. Cell line pJM8-3 was treated with high concentrations of NGF (100 ng/ml) for 5 minutes. The cells were lysed, immunoprecipitated with anti-trkB antiserum 443, transferred to nitrocellulose filters and probed with anti-phosphotyrosine (α-Ptyr) antibodies. As a negative control, untransfected NIH-3T3 cells were treated in parallel, while PC12 cells were used as a positive control for NGF responsiveness (Kaplan et al., (1991)).
BDNF and NT-3 are neurotrophic factors that display many functional and structural features that are reminiscent of NGF. The genes encoding BDNF and NT-3 have recently been cloned and used to express high levels of the biologically active factors in pure form (A. Rosenthal et al., Neuron 4:773 (1990)). It was tested whether these NGF-related neurotrophic factors would stimulate phosphorylation of the trkB glycoprotein by exposing the pJM-8 cell lines to 100 ng/ml of NGF, BDNF, or NT-3 (~4 nM) for 5 minutes. The cells were then lysed and the lysates incubated with a trkB anti-peptide antiserum (443) with or without excess peptide. After transfer to nitrocellulose filters, the trkB proteins were probed with an anti-phosphotyrosine (α-ptyr) monoclonal antibody (FIG. 10) (Kaplan et al. (1991)). […] Thus, both neurotrophic factors NT-3 and BDNF can elicit tyrosine phosphorylation of gp145^trkB in a manner similar to that observed for NGF stimulation of the trk receptor. Similar results have been obtained with NT-3 and BDNF in Rat2 cells expressing trkB.
Having detected gp145^trkB phosphorylation in response to BDNF and NT-3, it was next determined whether unrelated polypeptide growth factors were capable of eliciting a similar response. Platelet-derived growth factor (PDGF; 100 ng/ml), epidermal growth factor (EGF; 100 ng/ml), insulin (100 ng/ml), and basic fibroblast growth factor (bFGF; 100 ng/ml), were added independently to exponentially growing cultures of pJM8-3 cells.
The previous studies were done in the presence of high concentrations of neurotrophic factors. Dose response experiments were next performed to determine the range of concentrations at which phosphorylation of the trkB receptor was stimulated by NT-3 or BDNF. Cells were incubated with quantities of NT-3 or BDNF ranging from 0.1 ng/ml to 250 ng/ml and treated as described in FIG. 12. […]

Entries after “also recorded” stand apart in the source; their conditions may differ.

For the substance “NGF: neurotrophic polypeptide factor, nerve growth factor; ligand of trk proto-oncogene receptor”, the “p140^prototrk tyrosine phosphorylation” value with p140^prototrk was “enhanced”. For the same substance, the “level of trk transcripts” value in the assay on trk transcripts is “not affected”. For the same substance, the “tyrosine phosphorylation of gp145^trkB” value with gp145^trkB is “no increase in phosphorylation; also recorded: no detectable effect”.
